Legend:
Acetylcholinesterase [1] = target: T1, Acetylcholinesterase (Electrophorus electricus, UniProt O42275); experiment: Inhibition of electric eel AChE using […] as a substrate measured for 125 secs by DNTB reagent based Ellman's method
Cholinesterase [2] = target: T2, Cholinesterase (Equus caballus, UniProt P81908); experiment: Inhibition of equine serum BuChE using S-butyrylthiocholine iodide as a substrate measured for 125 secs by DNTB reagent based Ellman's method; format: cell-free
Acetylcholinesterase [3] = target: T1, Acetylcholinesterase; experiment: Inhibition of electric eel AChE using […] as a substrate by Cornish-Bowden plot analysis
Cholinesterase [4] = target: T2, Cholinesterase; experiment: Mixed type inhibition of equine serum BuChE using S-butyrylthiocholine iodide as a substrate by Cornish-Bowden plot analysis; format: cell-free
[5] = target: T3, Amine oxidase [flavin-containing] A (Homo sapiens, UniProt P21397); experiment: Inhibition of recombinant MAO-A (unknown origin) assessed as reduction in 4-hydroxyquinoline level using kynuramine as a substrate at 1 uM incubated for 20 mins by discontinuous fluorimetric assay relative to control
T3 sequence (P21397 whole entry): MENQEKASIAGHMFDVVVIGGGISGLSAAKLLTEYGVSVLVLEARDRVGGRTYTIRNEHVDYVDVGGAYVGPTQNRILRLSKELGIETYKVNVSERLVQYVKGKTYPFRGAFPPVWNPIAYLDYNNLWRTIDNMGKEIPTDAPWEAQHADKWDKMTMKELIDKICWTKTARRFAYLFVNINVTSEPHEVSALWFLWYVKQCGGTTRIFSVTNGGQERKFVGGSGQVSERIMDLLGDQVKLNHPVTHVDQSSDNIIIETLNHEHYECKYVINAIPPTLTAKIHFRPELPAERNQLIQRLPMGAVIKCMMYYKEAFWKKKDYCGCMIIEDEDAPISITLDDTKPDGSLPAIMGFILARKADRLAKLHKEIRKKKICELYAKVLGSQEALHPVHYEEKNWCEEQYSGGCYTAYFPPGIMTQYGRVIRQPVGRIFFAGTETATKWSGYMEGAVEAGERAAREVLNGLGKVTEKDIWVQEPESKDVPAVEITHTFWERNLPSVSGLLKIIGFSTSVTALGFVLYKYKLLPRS

[6] = target: T4, Amine oxidase [flavin-containing] B (Homo sapiens, UniProt P27338); experiment: Inhibition of recombinant MAO-B (unknown origin) assessed as reduction in 4-hydroxyquinoline level using kynuramine as a substrate at 1 uM incubated for 20 mins by discontinuous fluorimetric assay relative to control; conditions: read-out: INH
T4 sequence (P27338 whole entry): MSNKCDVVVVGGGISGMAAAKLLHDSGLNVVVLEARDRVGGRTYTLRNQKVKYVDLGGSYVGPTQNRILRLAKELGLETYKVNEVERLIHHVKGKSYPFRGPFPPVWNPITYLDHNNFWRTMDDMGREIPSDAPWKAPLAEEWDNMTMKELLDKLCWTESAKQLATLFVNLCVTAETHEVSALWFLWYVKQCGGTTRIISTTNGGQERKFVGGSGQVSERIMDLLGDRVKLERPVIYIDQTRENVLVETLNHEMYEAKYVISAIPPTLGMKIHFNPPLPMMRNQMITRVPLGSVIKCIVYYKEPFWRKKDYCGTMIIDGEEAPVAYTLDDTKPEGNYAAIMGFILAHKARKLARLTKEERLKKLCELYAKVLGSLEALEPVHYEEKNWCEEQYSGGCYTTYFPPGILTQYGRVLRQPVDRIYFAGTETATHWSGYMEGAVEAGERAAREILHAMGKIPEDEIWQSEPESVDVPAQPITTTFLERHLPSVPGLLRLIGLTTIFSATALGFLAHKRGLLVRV

T1 sequence (O42275 whole entry): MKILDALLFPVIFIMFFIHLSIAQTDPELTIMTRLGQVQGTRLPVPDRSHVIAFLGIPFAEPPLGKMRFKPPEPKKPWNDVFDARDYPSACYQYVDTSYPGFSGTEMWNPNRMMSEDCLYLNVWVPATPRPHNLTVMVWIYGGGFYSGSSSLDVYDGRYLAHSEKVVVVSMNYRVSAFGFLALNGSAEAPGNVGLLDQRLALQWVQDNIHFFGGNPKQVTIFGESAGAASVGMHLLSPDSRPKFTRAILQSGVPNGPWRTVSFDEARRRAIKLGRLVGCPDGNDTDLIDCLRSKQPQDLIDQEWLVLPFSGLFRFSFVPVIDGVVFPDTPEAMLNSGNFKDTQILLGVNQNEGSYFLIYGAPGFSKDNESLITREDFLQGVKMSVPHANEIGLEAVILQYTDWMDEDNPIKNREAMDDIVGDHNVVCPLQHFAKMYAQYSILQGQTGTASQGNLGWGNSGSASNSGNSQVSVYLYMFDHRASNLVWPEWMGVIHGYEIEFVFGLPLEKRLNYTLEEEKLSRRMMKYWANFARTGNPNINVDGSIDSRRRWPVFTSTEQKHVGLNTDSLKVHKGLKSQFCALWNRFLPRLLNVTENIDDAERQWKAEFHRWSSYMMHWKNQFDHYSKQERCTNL
T2 sequence (P81908 whole entry): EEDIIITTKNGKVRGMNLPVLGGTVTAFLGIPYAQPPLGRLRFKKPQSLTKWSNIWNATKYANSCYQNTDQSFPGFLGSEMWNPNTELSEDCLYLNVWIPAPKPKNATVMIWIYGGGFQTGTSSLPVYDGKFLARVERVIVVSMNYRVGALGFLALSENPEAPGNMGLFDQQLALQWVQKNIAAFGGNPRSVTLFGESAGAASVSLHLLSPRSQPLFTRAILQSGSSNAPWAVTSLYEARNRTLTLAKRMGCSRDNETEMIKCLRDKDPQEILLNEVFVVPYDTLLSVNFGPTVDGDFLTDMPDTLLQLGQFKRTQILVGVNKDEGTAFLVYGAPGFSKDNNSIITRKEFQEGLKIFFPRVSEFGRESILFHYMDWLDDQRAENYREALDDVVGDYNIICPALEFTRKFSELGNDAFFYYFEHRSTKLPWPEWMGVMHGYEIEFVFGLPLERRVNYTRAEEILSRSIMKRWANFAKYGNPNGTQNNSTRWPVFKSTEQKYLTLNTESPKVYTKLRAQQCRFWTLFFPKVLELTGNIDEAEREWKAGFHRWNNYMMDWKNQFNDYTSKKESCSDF

| SMILES | IC50 (Cholinesterase [2]) [µM] | further results |
| --- | --- | --- |
| CC(C)(C)NC(=O)C1(N2CCCC2=O)C(=O)Nc2ccc([N+](=O)[O-])cc21 (stereo not drawn) | 94 | IC50 (Acetylcholinesterase [1]): 45 µM |
| CC(C)(C)NC(=O)C1(N2CCCC2=O)C(=O)Nc2ccc(Br)cc21 (stereo not drawn) | > 100 |  |
| O=C1CCCN1C1(C(=O)NC2CCCCC2)C(=O)Nc2ccccc21 (stereo not drawn) | 44 |  |
| Cc1cc(C)c2c(c1)C(C(=O)NC(C)(C)C)(N1CCC1=O)C(=O)N2 (stereo not drawn) | 57 |  |
| O=C1CCCN1C1(C(=O)NCc2ccccc2)C(=O)Nc2ccccc21 (stereo not drawn) | 71 |  |
| CC(C)(C)CC(C)(C)NC(=O)C1(N2CCC2=O)C(=O)Nc2ccccc21 (stereo not drawn) | 42 |  |
| CC(C)(C)NC(=O)C1(N2CCC2=O)C(=O)Nc2ccc(Br)cc21 (stereo not drawn) | > 100 |  |
| CC(C)(C)NC(=O)C1(N2CCCC2=O)C(=O)N(Cc2ccccc2)c2ccccc21 (stereo not drawn) | 32 |  |
| CC(C)(C)NC(=O)C1(N2CCCC2=O)C(=O)Nc2ccccc21 (stereo not drawn) | 54 |  |
| CC(C)(C)NC(=O)C1(N2CCC2=O)C(=O)Nc2ccc([N+](=O)[O-])cc21 (stereo not drawn) | > 100 |  |
| CC(C)(C)NC(=O)C1(N2CCCC2=O)C(=O)N(c2ccccc2)c2ccccc21 (stereo not drawn) | 6.2 | Ki (Acetylcholinesterase [3]): 6.1 µM; Ki (Cholinesterase [4]): 18 µM |
| CC(C)(C)NC(=O)C1(N2CCCC2=O)C(=O)Nc2ccc(I)cc21 (stereo not drawn) | 68 |  |
| CC(C)(C)NC(=O)C1(N2CCC2=O)C(=O)Nc2ccccc21 (stereo not drawn) | > 100 |  |
| C#CCN1C(=O)C(C(=O)NCc2ccccc2)(N2CCC2=O)c2ccccc21 (stereo not drawn) | > 100 | inhibition at 1 µM [5]: 8.9%; inhibition at 1 µM [6]: 7.6% |
| CC(C)(C)NC(=O)C1(N2CCC2=O)C(=O)N(Cc2ccccc2)c2ccccc21 (stereo not drawn) | 51 |  |
| CC(C)(C)NC(=O)C1(N2CCC2=O)C(=O)Nc2ccc(I)cc21 (stereo not drawn) | 80 |  |
| CC(C)(C)NC(=O)C1(N2CCC2=O)C(=O)Nc2c(C(F)(F)F)cccc21 (stereo not drawn) | > 100 |  |
| Cc1cc(C)c2c(c1)C(C(=O)NC(C)(C)C)(N1CCCC1=O)C(=O)N2 (stereo not drawn) | > 100 |  |
| C[C@H](NCc1ccc(OCc2cccc(F)c2)cc1)C(N)=O [SAFINAMIDE] |  | inhibition at 1 µM [5]: -1.6% |
| C#CCN1C(=O)C(C(=O)NCc2ccccc2)(N2CCCC2=O)c2ccccc21 (stereo not drawn) | > 100 | inhibition at 1 µM [5]: 13.2%; inhibition at 1 µM [6]: 6.1% |
| CC(C)(C)NC(=O)C1(N2CCC2=O)C(=O)N(c2ccccc2)c2ccccc21 (stereo not drawn) | 22 |  |
| O=C1CCN1C1(C(=O)NCc2ccccc2)C(=O)Nc2ccccc21 (stereo not drawn) | > 100 | IC50 (Acetylcholinesterase [1]): > 100 µM |
| CN1C(=O)C(C(=O)NC(C)(C)C)(N2CCCC2=O)c2ccccc21 (stereo not drawn) | > 100 |  |
| CC(C)(C)CC(C)(C)NC(=O)C1(N2CCC2=O)C(=O)N(Cc2ccccc2)c2ccccc21 (stereo not drawn) | 1.8 | IC50 (Acetylcholinesterase [1]): > 100 µM; Ki (Acetylcholinesterase [3]): 1.8 µM; Ki (Cholinesterase [4]): 4.8 µM |
| CC(C)(C)CC(C)(C)NC(=O)C1(N2CCCC2=O)C(=O)Nc2ccccc21 (stereo not drawn) | 8.4 | IC50 (Acetylcholinesterase [1]): > 100 µM; Ki (Acetylcholinesterase [3]): 7.4 µM; Ki (Cholinesterase [4]): 15 µM |
| C#CCN(C)CCCOc1ccc(Cl)cc1Cl [CLORGILINE] |  | inhibition at 1 µM [5]: 100% |
| CN1C(=O)C(C(=O)NC(C)(C)CC(C)(C)C)(N2CCCC2=O)c2ccccc21 (stereo not drawn) | 18 |  |
| C#CCN1C(=O)C(C(=O)NC(C)(C)C)(N2CCC2=O)c2ccccc21 (stereo not drawn) |  | inhibition at 1 µM [5]: 5.9%; inhibition at 1 µM [6]: 7.4% |

Source: ChEMBL document CHEMBL4837266, “Ugi Reaction Synthesis of Oxindole-Lactam Hybrids as Selective Butyrylcholinesterase Inhibitors” (ACS Med Chem Lett, 2021)
